# Assay results as given in patent US8048879B2, “Substituted 4,5,6,7-tetrahydro-isoxazolo[4,5-c]pyridine compounds and use thereof for producing medicaments” (Gruenenthal GmbH, priority 2005, dated 2011).
# System: batrachotoxin (BTX) binding site of the sodium channel
# Assay: Affinity for the batrachotoxin (BTX) binding site of the sodium channel, [3H]-batrachotoxinin A20 α-benzoate, rat cerebrocortex synaptosomes
# Settings: test concentration not given
row,Compound,BTX inhibition (rat) % inhibition [%]
1,"O=C(c1noc2c1CN(S(=O)(=O)c1cccc3ccccc13)CC2)N1CCN(c2nccs2)CC1 [Example 142, (5-(naphthalen-1-ylsulfonyl)-4,5,6,7-tetrahydroisoxazolo[4,5-c]pyridin-3-yl)(4-(thiazol-2-yl)piperazin-1-yl)methanone]",54
2,"O=C(c1noc2c1CN(S(=O)(=O)c1ccc3ccccc3c1)CC2)N1CCN(c2nccs2)CC1 [Example 143, (5-(naphthalen-2-ylsulfonyl)-4,5,6,7-tetrahydroisoxazolo[4,5-c]pyridin-3-yl)(4-(thiazol-2-yl)piperazin-1-yl)methanone]",48
3,"Cc1cc(C)c(S(=O)(=O)N2CCc3onc(C(=O)N4CCC(CCN5CCCC5)CC4)c3C2)c(C)c1 [Example 146, (5-(mesitylsulfonyl)-4,5,6,7-tetrahydroisoxazolo[4,5-c]pyridin-3-yl)(4-(2-(pyrrolidin-1-yl)ethyl)piperidin-1-yl)methanone]",81
4,"O=C(c1noc2c1CN(S(=O)(=O)c1ccc(Cl)c(Cl)c1)CC2)N1CCC(CCN2CCCC2)CC1 [Example 147, (5-(3,4-dichlorophenylsulfonyl)-4,5,6,7-tetrahydroisoxazolo[4,5-c]pyridin-3-yl)(4-(2-(pyrrolidin-1-yl)ethyl)piperidin-1-yl)methanone]",70
5,"O=C(c1noc2c1CN(S(=O)(=O)c1ccc3ccccc3c1)CC2)N1CCC(CCN2CCCC2)CC1 [Example 148, (5-(naphthalen-2-ylsulfonyl)-4,5,6,7-tetrahydroisoxazolo[4,5-c]pyridin-3-yl)(4-(2-(pyrrolidin-1-yl)ethyl)piperidin-1-yl)methanone]",74
6,"Cl.O=C(c1noc2c1CN(S(=O)(=O)c1cccc3ccccc13)CC2)N1CCC(CCN2CCCC2)CC1 [Example 149, (5-(Naphthalene-1-ylsulfonyl)-4,5,6,7-tetrahydroisoxazolo[4,5-c]pyridin-3-yl)(4-(2-(pyrrolidin-1-yl)ethyl)piperidin-1-yl)methanone hydrochloride]",86
7,"CC(NC(=O)N1CCc2onc(C(=O)NCc3ccccc3)c2C1)c1ccccc1 (centres unmarked) [Example 150, N^3-benzyl-N^5-(1-phenylethyl)-6,7-dihydroisoxazolo[4,5-c]pyridine-3,5(4H)-dicarboxamide]",49
8,"COc1ccc(NC(=O)N2CCc3onc(C(=O)NCc4ccccc4)c3C2)cc1 [Example 151, N^3-benzyl-N^5-(4-methoxyphenyl)-6,7-dihydroisoxazolo[4,5-c]pyridine-3,5(4H)-dicarboxamide]",36
9,"Cc1ccc(NC(=O)c2noc3c2CN(S(=O)(=O)c2ccc(C)cc2)CC3)cc1 [Example 152, N-p-tolyl-5-tosyl-4,5,6,7-tetrahydroisoxazolo[4,5-c]pyridine-3-carboxamide]",29
10,"COCCNC(=O)c1noc2c1CN(C(=O)c1ccc(C(F)(F)F)c(F)c1)CC2 [Example 153, 5-(3-fluoro-4-(trifluoromethyl)benzoyl)-N-(2-methoxyethyl)-4,5,6,7-tetrahydroisoxazolo[4,5-c]pyridine-3-carboxamide]",28
11,"COc1ccc(NC(=O)N2CCc3onc(C(=O)NCc4ccc(S(N)(=O)=O)cc4)c3C2)cc1 [Example 154, N^5-(4-methoxyphenyl)-N^3-(4-sulfamoylbenzyl)-6,7-dihydroisoxazolo[4,5-c]pyridine-3,5(4H)-dicarboxamide]",4
12,"O=C(NCCN1CCCC1)c1noc2c1CN(C(=O)COc1cccc(Cl)c1)CC2 [Example 155, 5-(2-(3-chlorophenoxy)acetyl)-N-(2-(pyrrolidin-1-yl)ethyl)-4,5,6,7-tetrahydroisoxazolo[4,5-c]pyridine-3-carboxamide]",64
13,"O=C(Nc1ccccc1)c1noc2c1CN(C(=O)c1ccccc1F)CC2 [Example 156, 5-(2-fluorobenzoyl)-N-phenyl-4,5,6,7-tetrahydroisoxazolo[4,5-c]pyridine-3-carboxamide]",26
14,"Cc1ccc(S(=O)(=O)N2CCc3onc(C(=O)NCc4ccc(S(N)(=O)=O)cc4)c3C2)cc1 [Example 157, N-(4-sulfamoylbenzyl)-5-tosyl-4,5,6,7-tetrahydroisoxazolo[4,5-c]pyridine-3-carboxamide]",17
